# Laboratory results: patent US20020115122A1, “Method and apparatus for automated assessment of the immunoregulatory status of the mononuclear leukocyte immune system” (priority 1998, published 2002)
# Tests used:
# [1] = test system: peripheral blood mononuclear cells from normal donors; test: Antigenic determinant and IL-2 receptor expression on PHA stimulated mononuclear cells (flow cytofluorometry); assay type: cell-based, human; conditions: for IL2R+ percentage positive / Leu 2a+ percentage positive / Leu 3a+ percentage positive / Leu 4+ percentage positive: N = 9, ± standard error; for ratio of Activated Leu-3a+: Activated Leu-2a+ cells: at 18 hours in culture with PHA
# Experimental: The sample of isolated cells is cultured with a standard stimulus for a period of time sufficient to allow a measurable amount of activation antigen expression, as influenced by mononuclear cell subclass interaction, to develop. In this particular embodiment, the isolated cells at a concentration of 1 million cells per milliliter are cultured with PHA at a concentration of 37.5 micrograms per milliliter, serving as a standard stimulus, for 18 hours. RPMI 1640 with fetal calf serum and glutamine serve as a culture media. The culture time is determined for each particular standard stimulus using samples from normal subjects, culturing portions of each sample for different lengths of time and determining the amount of activation antigen expression for each culture time. A measurable amount of IL-2 receptor expression is observed about 18 hours after initiating the culture with PHA. The 18 hour culture period facilitates the use of this invention as a clinical assay.
# After culturing, the cells are washed to remove the standard stimulus and then aliquots of cells are simultaneously incubated with two monoclonal antibodies, each directly conjugated to different fluorometrically distinguishable fluorophores. The first fluorophore-conjugated monoclonal antibody binds to a select mononuclear cell subclass antigenic determinant and the second fluorometrically distinguishable fluorophore-conjugated monoclonal antibody binds to a select cell surface activation antigen. After incubation, the cells are washed to remove excess antibody and, in this particular embodiment, fixed with 1% paraformaldehyde to halt any further cellular activity.
# This analysis is correlated with the stimulation index as measured by a 72 hour PHA culture with tritiated thymidine uptake. Peripheral blood mononuclear cells from normal donors were isolated by density gradient centrifugation, cultured with PHA, incubated with monoclonal antibodies to select mononuclear cell subclass antigenic determinants and to IL-2 receptors and four parameter data generated and analyzed similar as described in “Detailed Description”. Monoclonal antibodies used included FITC-conjugated antibody for the antigenic determinants Leu-4, Leu-3a or Leu-2a, and PE-conjugated monoclonal antibody for IL-2 receptor. Four parameter data was collected on cells using an EPICS-V flow cytofluorometer (Coulter Corporation, Hialeah, Fla.) configured as described in “Detailed Description” with the following modification: the argon laser was used at 500 milliwatts. Forward and orthogonal light scatter parameters were analyzed to determine if the cell was within an area of interest which substantially included lymphocytes, lymphoblasts and monocytes. Green and red fluorescence data analysis was performed for such cells. The percentage of antigenic determinant and/or IL-2 receptor positive mononuclear cells, i.e., Leu-4+, Leu-3a+, Leu-2a+, IL2R+, leu-4+IL2R+, Leu-3a+IL2R+and Leu-2a+IL2R+, was determined as per the methods described herein. The results were not corrected for non-specific binding.
# First, mononuclear cell subclass antigenic determinant and activation antigen analysis of PHA stimulated mononuclear cells was conducted using aliquots incubated with only one monoclonal antibody.
# Analysis of the PEA stimulated mononuclear cells was conducted using aliquots incubated with a FITC-conjugated monoclonal antibody to detect antigenic determinants and anti-IL2R-PE.
# [2] = test system: peripheral blood mononuclear cells from normal donors; test: Stimulation index by tritiated thymidine uptake in PHA culture; assay type: cell-based, human; conditions: 72 hours in culture with PHA
# Experimental: This analysis is correlated with the stimulation index as measured by a 72 hour PHA culture with tritiated thymidine uptake. Peripheral blood mononuclear cells from normal donors were isolated by density gradient centrifugation, cultured with PHA, incubated with monoclonal antibodies to select mononuclear cell subclass antigenic determinants and to IL-2 receptors and four parameter data generated and analyzed similar as described in “Detailed Description”. Monoclonal antibodies used included FITC-conjugated antibody for the antigenic determinants Leu-4, Leu-3a or Leu-2a, and PE-conjugated monoclonal antibody for IL-2 receptor. Four parameter data was collected on cells using an EPICS-V flow cytofluorometer (Coulter Corporation, Hialeah, Fla.) configured as described in “Detailed Description” with the following modification: the argon laser was used at 500 milliwatts. Forward and orthogonal light scatter parameters were analyzed to determine if the cell was within an area of interest which substantially included lymphocytes, lymphoblasts and monocytes. Green and red fluorescence data analysis was performed for such cells. The percentage of antigenic determinant and/or IL-2 receptor positive mononuclear cells, i.e., Leu-4+, Leu-3a+, Leu-2a+, IL2R+, leu-4+IL2R+, Leu-3a+IL2R+and Leu-2a+IL2R+, was determined as per the methods described herein. […]
# [3] = 18 hours in culture with PHA, normal donors
# [4] = 24 hours in culture with PHA, normal donors
# [5] = 48 hours in culture with PHA, normal donors
# [6] = Subject D, 18 hours in culture with PHA
# [7] = Subject D, 24 hours in culture with PHA
# [8] = Subject D, 48 hours in culture with PHA
# [9] = Subject N, 18 hours in culture with PHA
# [10] = Subject N, 48 hours in culture with PHA
substance,measurement,setting,value
phytohemagglutinin [PHA],IL2R+ percentage positive,[1]; 18 hours in culture with PHA,61 ± 1.9 percentage
same,Leu 2a+ percentage positive,[1]; 18 hours in culture with PHA,18 ± 1.0 percentage
same,Leu 3a+ percentage positive,[1]; 18 hours in culture with PHA,54 ± 1.7 percentage
same,Leu 4+ percentage positive,[1]; 18 hours in culture with PHA,79 ± 2.4 percentage
same,Activated Leu-2a+,[1]; [3],25 ± 6.4 Percentage
same,Activated Leu-3a+,[1]; [3],49 ± 8.9 Percentage
same,Activated Leu-4+,[1]; [3],49 ± 6.1 Percentage
same,IL2R+ percentage positive,[1]; 24 hours in culture with PHA,71 ± 1.9 percentage
same,Leu 2a+ percentage positive,[1]; 24 hours in culture with PHA,18 ± 0.7 percentage
same,Leu 3a+ percentage positive,[1]; 24 hours in culture with PHA,54 ± 1.3 percentage
same,Leu 4+ percentage positive,[1]; 24 hours in culture with PHA,77 ± 1.9 percentage
same,Activated Leu-2a+,[1]; [4],32 ± 4.5 Percentage
same,Activated Leu-3a+,[1]; [4],62 ± 8.5 Percentage
same,Activated Leu-4+,[1]; [4],62 ± 3.7 Percentage
same,IL2R+ percentage positive,[1]; 48 hours in culture with PHA,80 ± 1.5 percentage
same,Leu 2a+ percentage positive,[1]; 48 hours in culture with PHA,19 ± 2.0 percentage
same,Leu 3a+ percentage positive,[1]; 48 hours in culture with PHA,53 ± 2.8 percentage
same,Leu 4+ percentage positive,[1]; 48 hours in culture with PHA,81 ± 2.2 percentage
same,Activated Leu-2a+,[1]; [5],55 ± 8.0 Percentage
same,Activated Leu-3a+,[1]; [5],70 ± 9.5 Percentage
same,Activated Leu-4+,[1]; [5],72 ± 5.5 Percentage
same,time after initiating the culture at which a measurable amount of IL-2 receptor expression is observed,"[1]; PHA 37.5 micrograms per milliliter, 1 million cells per milliliter",about 18 hours
same,Activated Leu-2a+,[1]; [6],32 Percentage
same,Activated Leu-3a+,[1]; [6],74 Percentage
same,Activated Leu-4+,[1]; [6],68 Percentage
same,Activated Leu-2a+,[1]; [7],32 Percentage
same,Activated Leu-3a+,[1]; [7],79 Percentage
same,Activated Leu-4+,[1]; [7],75 Percentage
same,Activated Leu-2a+,[1]; [8],76 Percentage
same,Activated Leu-3a+,[1]; [8],92 Percentage
same,Activated Leu-4+,[1]; [8],84 Percentage
same,ratio of Activated Leu-3a+: Activated Leu-2a+ cells,[1]; Subject D,2.31
same,Activated Leu-2a+,[1]; [9],30 Percentage
same,Activated Leu-3a+,[1]; [9],31 Percentage
same,Activated Leu-4+,[1]; [9],32 Percentage
same,Activated Leu-4+,"[1]; Subject N, 24 hours in culture with PHA",59 Percentage
same,Activated Leu-2a+,[1]; [10],71 Percentage
same,Activated Leu-3a+,[1]; [10],44 Percentage
same,ratio of Activated Leu-3a+: Activated Leu-2a+ cells,[1]; Subject N,1.03
same,ratio of Activated Leu-3a+: Activated Leu-2a+ cells,"[1]; Subject N, listed as PRA",approximately 1.0
same,subclass preference of activation,[1]; mononuclear cells which are Leu-3a+ versus Leu-2a+,preferentially activates helper/inducer T-cells
same,SI at 72,[2]; Subject D,535
same,SI at 72,[2]; Subject N,8
